From ChEMBL document CHEMBL6092206, “Discovery and Characterization of BAY-184: A New Potent and Selective Acylsulfonamide-Benzofuran In Vivo-Active KAT6AB Inhibitor” (J Med Chem, 2024)
Converted amounts (≈) assume the structure as drawn.

Experiments:
[1] = target: T1, Histone acetyltransferase KAT6A (Homo sapiens, UniProt Q92794); experiment: Inhibition of his-tagged human recombinant KAT6A (194 to 810 residues) expressed in baculovirus-infected Sf9 insect cells using H4-derived peptide as substrate incubated for 40 mins in presence of AcCoA by TR-FRET assay
[2] = target: T1, Histone acetyltransferase KAT6A; experiment: Inhibition of KAT6A in human MVLN cells assessed as decrease in estrogen receptor level incubated for 24 hrs by gene reporter assay; type: cell-based
[3] = Dissociation constant, pKa of compound; type: physicochemical
[4] = target: Histone acetyltransferase KAT6B (Homo sapiens, UniProt Q8WYB5); experiment: Inhibition of C-terminal human recombinant KAT6B (431 to end residues) expressed in baculovirus-infected Sf9 insect cells using H4-derived peptide as substrate incubated for 30 mins in presence of AcCoA by TR-FRET assay
[5] = Apparent permeability across apical to basolateral side in human Caco-2 cells at 2 uM pH 7.2 measured for 2 hrs by LC-MS/MS analysis; type: ADME, cell-based
[6] = Efflux ratio of apparent permeability across basolateral to apical side over apical to basolateral side in human Caco-2 cells incubated for 2 hrs by LC-MS/MS analysis; type: ADME, cell-based; conditions: caco-2, 2 h
[7] = Aqueous solubility of compound in PBS at pH 6.5 incubated for 24 hrs by HPLC-UV analysis; type: physicochemical
[8] = Lipophilicity, logD of the compound at pH 7.5; type: physicochemical; conditions: buffer

T1 sequence (Q92794 whole entry, the tested form may be a part): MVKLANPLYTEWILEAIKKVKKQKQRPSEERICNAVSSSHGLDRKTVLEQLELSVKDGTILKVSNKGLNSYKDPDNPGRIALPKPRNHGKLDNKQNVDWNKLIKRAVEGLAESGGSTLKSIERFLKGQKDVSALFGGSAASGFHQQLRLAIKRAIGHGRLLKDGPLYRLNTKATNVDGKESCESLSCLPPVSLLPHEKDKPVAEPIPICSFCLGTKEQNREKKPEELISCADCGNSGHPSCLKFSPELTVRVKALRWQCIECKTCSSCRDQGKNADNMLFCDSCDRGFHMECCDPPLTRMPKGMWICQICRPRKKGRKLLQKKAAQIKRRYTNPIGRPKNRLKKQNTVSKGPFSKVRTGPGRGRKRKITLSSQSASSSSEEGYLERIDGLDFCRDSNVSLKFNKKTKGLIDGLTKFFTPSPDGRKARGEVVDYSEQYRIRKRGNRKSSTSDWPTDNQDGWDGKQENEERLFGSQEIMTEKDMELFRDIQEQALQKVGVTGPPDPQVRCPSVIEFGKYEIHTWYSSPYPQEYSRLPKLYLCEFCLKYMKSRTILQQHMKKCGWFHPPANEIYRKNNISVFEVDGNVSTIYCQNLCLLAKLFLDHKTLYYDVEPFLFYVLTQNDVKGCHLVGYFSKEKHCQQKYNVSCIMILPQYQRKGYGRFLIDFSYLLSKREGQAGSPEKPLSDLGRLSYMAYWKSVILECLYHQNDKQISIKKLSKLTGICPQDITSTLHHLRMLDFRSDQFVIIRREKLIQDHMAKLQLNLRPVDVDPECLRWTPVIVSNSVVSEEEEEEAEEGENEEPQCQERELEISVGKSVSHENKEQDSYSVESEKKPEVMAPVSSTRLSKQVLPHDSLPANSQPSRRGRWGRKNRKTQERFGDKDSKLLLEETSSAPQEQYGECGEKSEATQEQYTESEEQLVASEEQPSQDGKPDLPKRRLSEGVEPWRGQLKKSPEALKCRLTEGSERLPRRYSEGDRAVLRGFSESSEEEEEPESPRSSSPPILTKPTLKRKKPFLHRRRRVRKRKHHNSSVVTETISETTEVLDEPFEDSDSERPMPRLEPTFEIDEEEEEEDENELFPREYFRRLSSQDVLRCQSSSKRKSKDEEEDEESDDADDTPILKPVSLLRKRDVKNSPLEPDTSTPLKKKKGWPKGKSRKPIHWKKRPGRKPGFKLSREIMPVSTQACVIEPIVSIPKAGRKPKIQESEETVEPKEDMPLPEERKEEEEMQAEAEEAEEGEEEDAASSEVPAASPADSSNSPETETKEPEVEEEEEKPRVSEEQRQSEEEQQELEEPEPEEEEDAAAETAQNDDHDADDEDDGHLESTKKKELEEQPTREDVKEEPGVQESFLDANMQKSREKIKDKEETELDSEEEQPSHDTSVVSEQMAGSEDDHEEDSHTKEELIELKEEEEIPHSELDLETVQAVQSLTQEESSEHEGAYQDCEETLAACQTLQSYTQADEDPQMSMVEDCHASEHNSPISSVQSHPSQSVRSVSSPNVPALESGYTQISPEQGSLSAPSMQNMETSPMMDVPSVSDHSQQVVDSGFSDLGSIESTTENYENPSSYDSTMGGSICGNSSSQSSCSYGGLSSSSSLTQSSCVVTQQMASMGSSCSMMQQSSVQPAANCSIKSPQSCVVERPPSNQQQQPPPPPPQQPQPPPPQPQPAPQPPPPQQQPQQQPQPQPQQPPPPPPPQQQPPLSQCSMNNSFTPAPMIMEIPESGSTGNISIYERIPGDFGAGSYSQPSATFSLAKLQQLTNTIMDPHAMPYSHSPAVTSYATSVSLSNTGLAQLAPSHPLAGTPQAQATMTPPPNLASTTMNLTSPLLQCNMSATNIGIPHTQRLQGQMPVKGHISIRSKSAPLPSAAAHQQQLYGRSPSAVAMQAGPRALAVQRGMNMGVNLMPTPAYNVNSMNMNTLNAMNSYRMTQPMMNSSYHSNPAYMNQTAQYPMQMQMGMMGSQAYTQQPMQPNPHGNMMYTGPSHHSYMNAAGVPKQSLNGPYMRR
Chain of Histone acetyltransferase KAT6B (Q8WYB5 whole entry): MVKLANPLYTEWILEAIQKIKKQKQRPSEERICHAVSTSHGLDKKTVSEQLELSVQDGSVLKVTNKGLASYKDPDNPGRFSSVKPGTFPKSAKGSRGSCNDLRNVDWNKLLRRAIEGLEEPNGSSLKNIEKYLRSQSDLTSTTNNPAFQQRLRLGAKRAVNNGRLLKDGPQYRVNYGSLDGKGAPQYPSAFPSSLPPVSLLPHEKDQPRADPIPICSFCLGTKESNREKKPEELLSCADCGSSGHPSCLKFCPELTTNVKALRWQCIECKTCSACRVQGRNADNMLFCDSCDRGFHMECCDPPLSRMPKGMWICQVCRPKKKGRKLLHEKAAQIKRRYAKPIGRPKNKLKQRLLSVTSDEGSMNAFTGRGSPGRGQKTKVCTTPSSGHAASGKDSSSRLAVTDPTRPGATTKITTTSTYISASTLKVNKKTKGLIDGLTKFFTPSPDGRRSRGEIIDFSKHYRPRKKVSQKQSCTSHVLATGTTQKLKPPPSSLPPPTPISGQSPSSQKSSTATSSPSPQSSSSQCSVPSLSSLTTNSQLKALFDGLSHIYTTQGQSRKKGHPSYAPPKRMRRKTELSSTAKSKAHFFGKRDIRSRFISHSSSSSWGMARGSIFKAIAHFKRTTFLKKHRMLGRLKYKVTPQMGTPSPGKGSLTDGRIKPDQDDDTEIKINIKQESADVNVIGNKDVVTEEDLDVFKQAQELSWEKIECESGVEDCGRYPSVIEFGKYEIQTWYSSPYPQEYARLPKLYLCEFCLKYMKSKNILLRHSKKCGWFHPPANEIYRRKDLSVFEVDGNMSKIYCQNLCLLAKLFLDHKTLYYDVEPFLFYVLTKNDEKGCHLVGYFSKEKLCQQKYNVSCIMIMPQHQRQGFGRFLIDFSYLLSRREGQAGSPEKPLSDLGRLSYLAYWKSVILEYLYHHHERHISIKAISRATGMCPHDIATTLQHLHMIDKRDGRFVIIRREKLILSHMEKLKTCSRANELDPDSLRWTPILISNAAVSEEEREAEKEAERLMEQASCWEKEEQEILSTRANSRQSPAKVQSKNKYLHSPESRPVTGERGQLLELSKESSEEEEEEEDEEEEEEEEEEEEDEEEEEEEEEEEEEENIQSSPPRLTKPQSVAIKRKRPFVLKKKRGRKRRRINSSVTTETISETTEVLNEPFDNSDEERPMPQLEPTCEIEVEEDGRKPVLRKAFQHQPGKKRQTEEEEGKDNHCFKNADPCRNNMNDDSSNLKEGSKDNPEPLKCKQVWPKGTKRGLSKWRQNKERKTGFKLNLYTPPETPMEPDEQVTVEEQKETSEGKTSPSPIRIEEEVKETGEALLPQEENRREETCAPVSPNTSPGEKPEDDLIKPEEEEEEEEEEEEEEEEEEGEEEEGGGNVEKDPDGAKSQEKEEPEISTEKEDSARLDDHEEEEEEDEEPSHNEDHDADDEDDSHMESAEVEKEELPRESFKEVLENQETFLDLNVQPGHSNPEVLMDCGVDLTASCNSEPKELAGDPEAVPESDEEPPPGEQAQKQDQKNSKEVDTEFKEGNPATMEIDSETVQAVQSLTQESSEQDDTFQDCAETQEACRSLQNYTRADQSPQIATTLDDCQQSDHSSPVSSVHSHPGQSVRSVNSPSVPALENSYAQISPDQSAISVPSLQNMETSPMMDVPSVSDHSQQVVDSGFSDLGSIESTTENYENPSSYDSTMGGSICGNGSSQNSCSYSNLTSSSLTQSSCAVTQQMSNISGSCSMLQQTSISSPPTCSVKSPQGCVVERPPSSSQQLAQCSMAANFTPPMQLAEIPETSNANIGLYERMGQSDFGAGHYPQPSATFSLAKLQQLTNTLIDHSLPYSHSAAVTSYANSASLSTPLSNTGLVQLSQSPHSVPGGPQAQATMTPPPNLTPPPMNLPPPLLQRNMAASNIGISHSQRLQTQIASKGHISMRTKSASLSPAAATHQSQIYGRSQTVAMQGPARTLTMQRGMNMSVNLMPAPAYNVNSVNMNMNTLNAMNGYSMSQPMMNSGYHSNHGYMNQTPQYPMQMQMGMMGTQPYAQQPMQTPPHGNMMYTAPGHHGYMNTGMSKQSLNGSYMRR

Row | SMILES | IC50 [1] [nM] | IC50 [2] [µM] | further results
1 | CCOc1cccc(-c2cccc(Cl)c2)c1S(=O)(=O)NC(=O)c1cc2c(C)cc(OC)cc2o1 | 11 | 3.68 | pKa [3]: 6
2 | O=C(NS(=O)(=O)c1ccccc1-c1ccccc1)c1cc2ccc(C3CC3)cc2o1 |  | 1.02 | 
3 | COc1cc(C)c2cc(C(=O)NS(=O)(=O)c3ccccc3OC)oc2c1 | 46 | 13.2 | pKa [3]: 3.2
4 | COc1cc(C)c2cc(C(=O)NS(=O)(=O)c3ccc(Cl)cc3)oc2c1 | 75 | 2.28 | pKa [3]: 2.9
5 | CCOc1ccccc1S(=O)(=O)NC(=O)c1cc2c(OC)cc(OC)cc2o1 |  |  | Papp A→B at 2 h, 2 µM ([5]; Caco-2, pH 7.2): 2.8 ×10⁻⁶ cm/s
6 | COc1cc(C)c2cc(C(=O)NS(=O)(=O)c3ccc(C)cc3-c3ccccc3)oc2c1 | 10 | > 20 | pKa [3]: 4.7
7 | O=C(NS(=O)(=O)c1ccccc1-c1ccccc1)c1cc2ccc(N3CCOCC3)cc2o1 | > 20000 | > 20 | 
8 | COCCc1ccc2cc(C(=O)NS(=O)(=O)c3ccccc3-c3ccccc3)oc2c1 |  | > 15.6 | 
9 | CCOc1ccc2cc(C(=O)NS(=O)(=O)c3ccccc3-c3ccccc3)oc2c1 | 554 | 9.75 | 
10 | CCOc1cccc(-c2ccccc2)c1S(=O)(=O)NC(=O)c1cc2c(C)cc(OC)cc2o1 | 32 | 1.4 | pKa [3]: 5.6
11 | COc1cc(C)c2cc(C(=O)NS(=O)(=O)c3cccc4ccc(C)nc34)oc2c1 | 13 | 2.57 | 
12 | O=C(NS(=O)(=O)c1ccccc1-c1ccccc1)c1cc2ccc(OCCO)cc2o1 | 1370 | > 20 | 
13 | CCCOc1ccccc1S(=O)(=O)NC(=O)c1cc2c(C)cc(OC)cc2o1 | 19 | 6.54 | pKa [3]: 4
14 | COc1cccc2cc(C(=O)NS(=O)(=O)c3ccccc3-c3ccccc3)oc12 | 142 | 4.52 | IC50 [4]: 351 nM
15 | COc1cc(C)c2cc(C(=O)NS(=O)(=O)c3ccc(C)cc3)oc2c1 | 107 | 18.2 | pKa [3]: 3
16 | COc1cc(C)c2cc(C(=O)NS(=O)(=O)c3ccc(-c4ccccc4)cc3)oc2c1 | 46 | > 17.6 | pKa [3]: 5.8
17 | CCCOc1ccc2cc(C(=O)NS(=O)(=O)c3ccccc3-c3ccccc3)oc2c1 | 1540 | 8.68 | 

Further lines, with some results ahead:

Row | IC50 [1] [nM] | IC50 [2] [µM] | SMILES | further results
18 | 66 | > 20 | Cc1cc(Br)cc2oc(C(=O)NS(=O)(=O)c3ccccc3-c3ccccc3)cc12 | 
19 | 1350 | > 15.5 | COCCN(C)c1ccc2cc(C(=O)NS(=O)(=O)c3ccccc3-c3ccccc3)oc2c1 | 
20 |  | 3.02 | CC(C)c1ccc2cc(C(=O)NS(=O)(=O)c3ccccc3-c3ccccc3)oc2c1 | 
21 |  | 2.5 | Cc1cc(C)c2cc(C(=O)NS(=O)(=O)c3ccccc3-c3ccccc3)oc2c1 | 
22 | 173 | 1 | O=C(NS(=O)(=O)c1ccccc1-c1ccccc1)c1cc2c(F)cc(C3CC3)cc2o1 | 
23 | 260 | 7.62 | COc1ccc2cc(C(=O)NS(=O)(=O)c3ccccc3-c3ccccc3)oc2c1 | IC50 [4]: 368 nM
24 | 1800 |  | COc1ccc2oc(C(=O)NS(=O)(=O)c3ccccc3-c3ccccc3)cc2c1 | IC50 [4]: 9020 nM
25 |  | > 20 | Cc1cc(N(C)C)cc2oc(C(=O)NS(=O)(=O)c3ccccc3-c3ccccc3)cc12 | 
26 | 24 | > 4.6 | COc1cc(C)c2cc(C(=O)NS(=O)(=O)c3ccccc3-c3ccccc3)oc2c1 | Papp ([5]; caco-2, pH 7.2, 2 h, 2 µM): 64 nm/s; IC50 [4]: 76 nM; Ratio [6]: 1; pKa [3]: 4.3
27 |  | 0.06 | CN(C)c1cc(F)c2cc(C(=O)NS(=O)(=O)c3ccccc3-c3ccccc3)oc2c1 | solubility at 24 h [7]: 264 µg/mL (≈ 602 µM); logD [8]: 2
28 |  | 10 | COc1cc(C)cc2oc(C(=O)NS(=O)(=O)c3ccccc3-c3ccccc3)cc12 | 
29 |  | > 20 | O=C(NS(=O)(=O)c1ccccc1-c1ccccc1)c1cc2ccc(C(F)F)cc2o1 | 
30 |  | > 11 | Cc1ccc2cc(C(=O)NS(=O)(=O)c3ccccc3-c3ccccc3)oc2c1 | 
31 | 751 | > 20 | CCCN(C)c1ccc2cc(C(=O)NS(=O)(=O)c3ccccc3-c3ccccc3)oc2c1 | 
32 | 2160 | > 20 | O=C(NS(=O)(=O)c1ccccc1-c1ccccc1)c1cc2ccccc2o1 | IC50 [4]: 10500 nM
33 |  | 2.58 | CNc1ccc2cc(C(=O)NS(=O)(=O)c3ccccc3-c3ccccc3)oc2c1 | 
34 |  | 1.32 | C=C(C)c1ccc2cc(C(=O)NS(=O)(=O)c3ccccc3-c3ccccc3)oc2c1 | 
35 | 1350 |  | COc1cccc2oc(C(=O)NS(=O)(=O)c3ccccc3-c3ccccc3)cc12 | IC50 [4]: 3140 nM
36 | 454 |  | Cc1cccc2oc(C(=O)NS(=O)(=O)c3ccccc3-c3ccccc3)cc12 | IC50 [4]: 2570 nM
